Series [1] is described as follows: Acute toxicity on mice. In kind it is in vivo. The note with it: mouse, in vivo, ip, 24 hours after administration; read-out: Estimated LD50. As to the method: The acute toxicity of the compounds of the invention was examined by the following method.
Male ddy-strain 5-week old mice, 4-6- per group, were used as experimental animals. Each of the compounds was intraperitoneally (i.p.), and the toxicity of the compound was assessed 24 hours after the administration.

In series [2] the test system is neuro-2a (mouse neuroblastoma cells). The series can be described thus: Action on neuro-2a: proportion of cells containing outgrown neurites. The class given is cell-based. The following applies: mean ± S.D. An outline of the steps:
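Read-out is the percentage of neurite-bearing cells (neurite ≥2× long cell diameter), counted microscopically over more than 200 cells per well. Before fixation and staining, neuro-2a cells (1,000/well, DMEM + 10% FCS) were cultured for one day at 37 °C; up to six compound concentrations, three runs each.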

As for `CN(C(=O)Oc1ccccc1)c1ccnc(N2CCC(c3ccccc3)CC2)n1` [Compound 2334], in series [1], the LD50 – broadly, the dose at which mortality reaches 50% – at 24 h is above 1000 mg/kg. For the same compound, the figures for the “Number of cells having neurites with a length at least two times the diameter of each cell/total number of cells” value (“Number … of each cell/total number of cells” for short) in series [2] (0.03 mM) and in series [2] (0.1 mM) were 13.2 ± 0.2% and 16.7 ± 0.8%, respectively.

On to `CN(C(=O)c1ccccc1)c1ccnc(N2CCC(CO)CC2)n1` [Compound 2164], for which the LD50 at 24 h in series [1] was above 1000 mg/kg. The “Number … of each cell/total number of cells” value is 4.6 ± 1.1% in series [2] (0.1 mM) and 11.7 ± 0.7% in series [2] (1 mM).

As for `CN(C(=O)c1ccccc1)c1ccnc(N2CCC(C(=O)c3ccc(Cl)cc3)CC2)n1` [Compound 2310], the LD50 at 24 h in series [1] is 500 to 1000 mg/kg. For the same compound, the “Number … of each cell/total number of cells” value was 8.3 ± 1.8% in series [2] (0.1 mM) and 12.1 ± 3.6% in series [2] (0.3 mM).

Consider `CNc1nc(C)cc(N2CCC(c3ccccc3)CC2)n1` [Compound 1158], for which the LD50 at 24 h in series [1] was below 250 mg/kg. Also, the “Number … of each cell/total number of cells” value in series [2] (0.03 mM) is 9.9 ± 1.4%; in series [2] (0.1 mM) it was 18.4 ± 3.0%; in series [2] (0.3 mM), 22.1 ± 6.7%; in series [2] (1 mM), 19.1 ± 2.7%.

Take `CC1CCCN(c2nccc(N(C)C(=O)c3ccccc3)n2)C1` (centres unmarked) [Compound 138]: the LD50 at 24 h in series [1] is above 1000 mg/kg. Further, the results for the “Number … of each cell/total number of cells” value in series [2] (0.03 mM) and in series [2] (0.1 mM) were 6.3 ± 1.8% and 12.6 ± 4.1%, respectively.

In the case of `CN(C(=O)N1CCOCC1)c1ccnc(N2CCC(c3ccccc3)CC2)n1` [Compound 2326], in series [1], the LD50 at 24 h is 500 to 1000 mg/kg. Moreover, the “Number … of each cell/total number of cells” value in series [2] (0.03 mM) is given as 4.6 ± 1.4%; in series [2] (0.1 mM), 8.3 ± 2.6%.

Turning to `CN1CCN(c2nccc(N(C)C(=O)c3ccccc3)n2)CC1` [Compound 352], the LD50 at 24 h in series [1] is 500 to 1000 mg/kg. Moreover, the entries for the “Number … of each cell/total number of cells” value in series [2] (0.1 mM) and in series [2] (0.3 mM) were 3.2 ± 1.9% and 9.9 ± 1.6%, respectively.

For `CN(C(=O)c1ccccc1)c1ccnc(N2CCCC3CCCCC32)n1` (centres unmarked) [Compound 2156], the LD50 at 24 h in series [1] was above 1000 mg/kg. Besides, the “Number … of each cell/total number of cells” value in series [2] (0.03 mM) was 8.6 ± 1.0%; in series [2] (0.1 mM) it was 19.6 ± 5.3%.

As for `CN(C(=O)c1ccccc1)c1ccnc(NC2CN3CCC2CC3)n1` (centres unmarked) [Compound 2342], the LD50 at 24 h in series [1] is 500 to 1000 mg/kg. In addition, the entries for the “Number … of each cell/total number of cells” value in series [2] (0.03 mM) and in series [2] (0.1 mM) were 5.9 ± 2.1% and 11.4 ± 1.4%, respectively.

Regarding `Cc1cnc(N2CCCCC2)nc1N(C)C(=O)c1ccccc1` [Compound 408], in series [1], the LD50 at 24 h was 500 to 1000 mg/kg. Also, the “Number … of each cell/total number of cells” value in series [2] (0.1 mM) is 9.1 ± 1.8%; in series [2] (0.3 mM), 9.6 ± 3.9%.

`CN(C(=O)c1ccccc1)c1ccnc(N2CCC(C)(C)CC2)n1` [Compound 2116]: the LD50 at 24 h in series [1] is 500 to 1000 mg/kg. Moreover, the “Number … of each cell/total number of cells” value in series [2] (0.1 mM) is 34.2 ± 3.8%; in series [2] (0.3 mM), 8.2 ± 3.6%.

Consider `CCCN(C(=O)c1ccccc1)c1nccc(N2CCC(c3ccccc3)CC2)n1` [Compound 644], for which the LD50 at 24 h in series [1] is above 1000 mg/kg. Also, the entries for the “Number … of each cell/total number of cells” value in series [2] (0.03 mM) and in series [2] (0.1 mM) were 26.1 ± 7.3% and 14.7 ± 7.3%, respectively.
